# Source: ChEMBL document CHEMBL3045108, “Advanced QSRR models of toxicological screening of basic drugs in whole blood by UPLC-TOFMS” (Med Chem Res, 2012)
# Test system: Blood
# Assay: Drug level in Homo sapiens (human) whole blood assessed as retention time by UPLC-TOF-MS analysis
row,SMILES,Retention_time [min]
1,O=C1CN=C(c2ccccc2)c2cc([N+](=O)[O-])ccc2N1 [NITRAZEPAM],5.8
2,O=C(NCC1CCCCN1)c1cc(OCC(F)(F)F)ccc1OCC(F)(F)F (stereo not drawn) [FLECAINIDE],5.58
3,COc1ccc2c(c1)N(C[C@H](C)CN(C)C)c1ccccc1S2 [LEVOMEPROMAZINE],5.98
4,COC(=O)C1=C(C)NC(C)=C(C(=O)OC)C1c1ccccc1[N+](=O)[O-] [NIFEDIPINE],6.4
5,CN1C(=O)CN=C(c2ccccc2F)c2cc([N+](=O)[O-])ccc21 [FLUNITRAZEPAM],6.16
6,CC(CN(C)C)CN1c2ccccc2CCc2ccccc21 (stereo not drawn) [TRIMIPRAMINE],6.05
7,CCCc1nc(C)c2c(=O)[nH]c(-c3cc(S(=O)(=O)N4CCN(CC)CC4)ccc3OCC)nn12,5.17
8,CCC(=O)C1(c2cccc(O)c2)CCN(C)CC1 [KETOBEMIDONE],3.22
9,CN1CC[C@@]23CCCC[C@@H]2[C@@H]1Cc1ccc(O)cc13 [DEXTRORPHAN],3.82
10,COc1ccc2c3c1O[C@H]1C(=O)CC[C@@]4(O)[C@@H](C2)N(C)CC[C@]314 [OXYCODONE],2.67
11,COc1cc(CCN)c(OC)cc1I,4.92
12,COC(=O)C(c1ccccc1)C1CCCCN1 (stereo not drawn) [METHYLPHENIDATE],4.16
13,CCN(CC)C(=O)[C@@H]1C=C2c3cccc4[nH]cc(c34)C[C@H]2N(C)C1 [LYSERGIDE],4.88
14,O=C1CC(=O)N(c2ccccc2)c2cc(Cl)ccc2N1 [NOR-CLOBAZAM],5.61
15,C=CCN1CC[C@]23c4c5ccc(O)c4O[C@H]2C(=O)CC[C@@]3(O)[C@H]1C5 [NALOXONE],2.46
16,CN(C)C(=O)C(CCN1CCC(O)(c2ccc(Cl)cc2)CC1)(c1ccccc1)c1ccccc1 [LOPERAMIDE],6.37
17,O=C1CN=C(c2ccccc2Cl)c2cc([N+](=O)[O-])ccc2N1 [CLONAZEPAM],5.99
18,CCCCN1CCCCC1C(=O)Nc1c(C)cccc1C (stereo not drawn) [BUPIVACAINE],5.08
19,CN1CCN(C(=O)OC2c3nccnc3C(=O)N2c2ccc(Cl)cn2)CC1 (stereo not drawn) [ZOPICLONE],3.88
20,CN1CC[C@]23c4c5ccc(O)c4O[C@H]2C(=O)CC[C@@]3(O)[C@H]1C5 [OXYMORPHONE],1.78
21,COC(=O)C1=C(C)NC(C)=C(C(=O)OC(C)C)C1c1cccc2nonc12 (stereo not drawn) [ISRADIPINE],7
22,CC[C@H]1C[C@@H]2C[C@H]3c4[nH]c5ccc(OC)cc5c4CCN(C2)[C@@H]13 [IBOGAINE],4.94

row,SMILES,Retention_time [min]
1,c1ccc(C2(N3CCCCC3)CCCCC2)cc1 [PHENCYCLIDINE],5.23
2,CCC(=O)O[C@](Cc1ccccc1)(c1ccccc1)[C@H](C)CN(C)C [PROPOXYPHENE],5.98
3,O=C1CN=C(c2ccccc2)c2cc(Cl)ccc2N1CC1CC1 [PRAZEPAM],7.25
4,CCOc1ccccc1OC(c1ccccc1)C1CNCCO1 (stereo not drawn) [REBOXETINE],5.6
5,CN1CCN(C(c2ccccc2)c2ccccc2)CC1 [CYCLIZINE],5.52
6,CCCC(=O)Nc1ccc(OCC(O)CNC(C)C)c(C(C)=O)c1 (stereo not drawn) [ACEBUTOLOL],4.07
7,CC(C)(C)NCC(O)c1cc(O)cc(O)c1 (stereo not drawn) [TERBUTALINE],1.93
8,CN(C)CCCN1c2ccccc2CCc2ccc(Cl)cc21 [CLOMIPRAMINE],6.22
9,C[C@H](N)C(=O)c1ccccc1 [CATHINONE],2.09
10,Cc1ccccc1C(OCCN(C)C)c1ccccc1 (stereo not drawn) [ORPHENADRINE],5.75
11,Cc1nnc2n1-c1sc(Br)cc1C(c1ccccc1Cl)=NC2 [BROTIZOLAM],6.27
12,C(=C\c1ccccc1)/CN1CCN(C(c2ccccc2)c2ccccc2)CC1 [CINNARIZINE],6.57
13,COc1ccc2c3c1O[C@H]1C(=O)CC[C@H]4[C@@H](C2)N(C)CC[C@]314 [HYDROCODONE],2.96
14,OC(CCN1CCCCC1)(c1ccccc1)C1CC2C=CC1C2 (stereo not drawn) [BIPERIDEN],5.78
15,CNCCC=C1c2ccccc2CCc2ccccc21 [NORTRIPTYLINE],5.92
16,CC(C)NCC(O)COc1ccc(COCCOC(C)C)cc1 (stereo not drawn) [BISOPROLOL],5.06
17,Fc1ccc([C@@H]2CCNC[C@H]2COc2ccc3c(c2)OCO3)cc1 [PAROXETINE],5.66
18,CN(C)CCCN1c2ccccc2Sc2ccc(Cl)cc21 [CHLORPROMAZINE],6.12
19,NC1=Nc2ccc(Cl)cc2C(c2ccccc2)=[N+]([O-])C1,4.85
20,CN1CCN=C(c2ccccc2)c2cc(Cl)ccc21 [MEDAZEPAM],5.45
21,O=C(CCCN1CCC(O)(c2ccc(Cl)cc2)CC1)c1ccc(F)cc1 [HALOPERIDOL],5.57
22,CC(N)Cc1ccc2c(c1)OCO2 (stereo not drawn) [TENAMFETAMINE],2.7

row,SMILES,Retention_time [min]
1,CCCc1nn(C)c2c(=O)[nH]c(-c3cc(S(=O)(=O)N4CCN(C)CC4)ccc3OCC)nc12,5.54
2,CN[C@H]1CC[C@@H](c2ccc(Cl)c(Cl)c2)c2ccccc21 [SERTRALINE],6.04
3,COc1ccc2c(c1)[C@]13CCCC[C@@H]1[C@H](C2)N(C)CC3 [DEXTROMETHORPHAN],5.38
4,CCOC(=O)C1(c2ccccc2)CCN(CCC(C#N)(c2ccccc2)c2ccccc2)CC1 [DIPHENOXYLATE],6.56
5,CCNCCN1C(=O)CN=C(c2ccccc2F)c2cc(Cl)ccc21,6.19
6,COc1ccc([C@@H]2Sc3ccccc3N(CCN(C)C)C(=O)[C@@H]2OC(C)=O)cc1 [DILTIAZEM],5.63
7,CN[C@@H](C)[C@H](O)c1ccccc1 [EPHEDRINE],2.28
8,COc1ccc2c(c1OC)C(=O)O[C@@H]2[C@H]1c2c(cc3c(c2OC)OCO3)CCN1C [NOSCAPINE],4.99
9,COCCOC(=O)C1=C(C)NC(C)=C(C(=O)OC(C)C)C1c1cccc([N+](=O)[O-])c1 (stereo not drawn) [NIMODIPINE],7.14
10,CN1[C@H]2CC[C@@H]1[C@@H](C(=O)O)[C@@H](OC(=O)c1ccccc1)C2 [THERACYS],3.48
11,CN(C)CCC=C1c2ccccc2CCc2ccccc21 [AMITRIPTYLINE],5.86
12,C[C@H](N)[C@@H](O)c1ccccc1 [CATHINE],2.05
13,COc1ccccc1OCCNCC(O)COc1cccc2[nH]c3ccccc3c12 (stereo not drawn) [CARVEDILOL],5.71
14,CNC(C)Cc1ccc2c(c1)OCO2 (stereo not drawn) [MIDOMAFETAMINE],2.89
15,CCOC(=O)C1(c2ccccc2)CCN(C)CC1 [MEPERIDINE],4.68
16,CCOC(=O)c1ccc(N)cc1 [BENZOCAINE],5.15
17,CNC(C)Cc1ccc(OC)cc1 (stereo not drawn),3.14
18,CC(C)(N)Cc1ccccc1 [PHENTERMINE],3.08
19,CC1Cc2ccccc2N1NC(=O)c1ccc(Cl)c(S(N)(=O)=O)c1 (stereo not drawn) [INDAPAMIDE],5.79
20,CN(C)CCc1c[nH]c2ccccc12,2.89
21,COc1cccc(C2(O)CCCCC2CN(C)C)c1 (stereo not drawn) [TRAMADOL],4.09
22,COC(=O)C1=C(C)NC(C)=C(C(=O)OC(C)(C)CN(C)CCC(c2ccccc2)c2ccccc2)C1c1cccc([N+](=O)[O-])c1 (stereo not drawn) [LERCANIDIPINE],6.8

row,SMILES,Retention_time [min]
1,O=C1NCCN1CCN1CCC(c2cn(-c3ccc(F)cc3)c3ccc(Cl)cc23)CC1 [SERTINDOLE],6.3
2,CNCCC(Oc1ccc(C(F)(F)F)cc1)c1ccccc1 (stereo not drawn) [FLUOXETINE],6.08
3,CN(C)CCC=C1c2ccccc2COc2ccccc21 [DOXEPIN],5.59
4,CN1C(=O)C(O)N=C(c2ccccc2Cl)c2cc(Cl)ccc21 (stereo not drawn) [LORMETAZEPAM],6.41
5,CCN(CC)C(C)C(=O)c1ccccc1 (stereo not drawn) [DIETHYLPROPION],3.05
6,COc1cc(CCN)cc(OC)c1OC [MESCALINE],2.77
7,CC(C)NCC(O)COc1cccc2[nH]ccc12 (stereo not drawn) [PINDOLOL],3
8,NCC1(CC(=O)O)CCCCC1 [GABAPENTIN],2.41
9,CCN(CC)CCNC(=O)c1cc(Cl)c(N)cc1OC [METOCLOPRAMIDE],3.64
10,Nc1ccc2c(c1)C(c1ccccc1)=NCC(=O)N2 [7-AMINO-NITRAZEPAM],2.26
11,CN1CCN(C2=Nc3cc(Cl)ccc3Nc3ccccc32)CC1 [CLOZAPINE],5.1
12,COc1ccc(CCN(C)CCCC(C#N)(c2ccc(OC)c(OC)c2)C(C)C)cc1OC (stereo not drawn),5.95
13,O=c1[nH]c2ccccc2n1C1CCN(CCCC(c2ccc(F)cc2)c2ccc(F)cc2)CC1 [PIMOZIDE],6.28
14,CO[C@]12CC[C@@]3(C[C@@H]1[C@](C)(O)C(C)(C)C)[C@H]1Cc4ccc(O)c5c4[C@@]3(CCN1CC1CC1)[C@H]2O5 [BUPRENORPHINE],5.59
15,CC(CCc1ccccc1)NCC(O)c1ccc(O)c(C(N)=O)c1 (stereo not drawn) [LABETALOL],4.95
16,CC(C)NCC(O)COc1cccc2ccccc12 (stereo not drawn) [PROPRANOLOL],5.28
17,CN1CCC[C@@H]1Cc1c[nH]c2ccc(CCS(=O)(=O)c3ccccc3)cc12,5.21
18,CC(C=C(c1ccccc1)c1ccccc1)N(C)C (stereo not drawn),5.72
19,O=C1CC2(CCCC2)CC(=O)N1CCCCN1CCN(c2ncccn2)CC1 [BUSPIRONE],5.14
20,O=C1CN=C(c2ccccc2)c2cc(Cl)ccc2N1CC(F)(F)F [HALAZEPAM],7.22
21,CCC(=O)C(CC(C)N(C)C)(c1ccccc1)c1ccccc1 (stereo not drawn) [METHADONE],6.03
22,CC(=O)c1ccc2c(c1)N(CCCN(C)C)c1ccccc1S2 [ACEPROMAZINE],5.67
